Results as given in patent US20250281462A1, “THERAPEUTICALLY EFFECTIVE ORAL ADMINISTRATION OF A 2 ARYLBENZIMIDAZOLE” (Tranquis Therapeutics, Inc., priority 2021, published 2025).
“Also recorded” adds a separate entry of the source.

What was measured:
PGC-1α = PGC-1α protein expression in BV2 cells (Western blot); format: cell-based, murine; conditions: 20 μM, 24 hours
Method: Frozen BV2 murine microglia cells were thawed and propagated in complete media (RPMI, 10% heat-inactivated FBS, 1% L-glutamine, 1% Pen-Strep) until the growth rate reached log phase. For protein expression analysis, DMSO (1:1000 final dilution) or TQS-168 in DMSO (1:1000 final dilution) at 20 μM was added to cell cultures. After 24 hours stimulation, supernatant was discarded and cell lysis buffer (Cell Signal) was added to adherent cells to extract protein. Total protein was quantified and normalized across all samples by BCA assays. Two replicates of untreated cultures and three replicates of TQS-168-treated cultures were investigated, with each replicate containing lysates from 5,000,000 BV2 myeloid cells. PGC1α expression was detected by Western Blot using an anti-PGC-1α antibody (SC13067, Santa Cruz Biotechnology, 1:500 dilution). Anti-[…] antibody (SC8432, Santa Cruz Biotechnology, 1:2000 dilution) was used to quantify beta-actin, a housekeeping gene whose expression level is not known to be affected by TQS-168. […] Total protein was quantified and normalized across all samples by BCA assays. PGC-1α was subsequently detected by Western Blot using an anti-PGC-1α antibody (SC13067, Santa Cruz Biotechnology, 1:500 dilution). β-actin was detected with an anti-β-actin antibody (SC8432, Santa Cruz Biotechnology, 1:2000 dilution). […]

TNF-α = experiment: LPS-induced TNF-α production by primary human myeloid cells (PBMC, CBA); format: cell-based; conditions: 100 ng/mL LPS, 24 hours
Method: Peripheral blood mononuclear cells (PBMC) from 4 different healthy volunteers were used in this study. Fresh blood samples were collected at Stanford Blood Center and processed for PBMC isolation with Ficoll gradient. PBMC samples were stored in liquid nitrogen at […] for subsequent analysis of TNF-α production. For TNF-α stimulation, frozen PBMC samples were thawed and rested at 37° C. before cells were stimulated with 100 ng/ml of LPS for 24 hours. DMSO (1:1000 final dilution) or TQS-168 in DMSO (1:1000 final dilution) at various concentrations was added to cell cultures of LPS-stimulated PBMC to evaluate the effects of T-168 on TNF-α production by human primary myeloid cells. After 24 hours stimulation, supernatant samples from various conditions were collected and TNF-α concentrations in the supernatants analyzed with cytometric bead array (CBA) assay per protocols from BD Biosciences. TNF-α was quantified by median fluorescent intensity reading (MFI). Samples were analyzed directly after staining with LSRII flow cytometer.

older mice = conditions: oral 25 mg/kg; cited from earlier work
[1] = Phase 1 single ascending dose (SAD) trial, plasma pharmacokinetics (Part 1); conditions: human; for Frel AUC(0-inf)/D / Frel AUC(0-last)/D / Frel Cmax/D: dose normalized comparison to Regimen C 540 mg MC; for AUC(0-t) / AUC(0-inf) / Cmax / half-life / Tmax: male, in vivo, po, single dose; for AUC(0-t) / AUC(0-inf) / Cmax / Tmax: human plasma; for half-life: T1/2, human plasma; for Tmax: median
[2] = 90 mg SDD, fasted (Regimen G) versus fed (Regimen F)
[3] = 180 mg HME (Regimen E) compared to MC counterpart (Regimen B)
[4] = 180 mg SDD (Regimen D) compared to MC counterpart (Regimen B)
[5] = MC formulation, 60 mg to 540 mg TQS-168 (9-fold increase in dose)
[6] = MC formulation, 180 mg to 540 mg TQS-168 (3-fold increase in dose)
[7] = SDD fasted, 270 mg (Regimen H) vs 90 mg (Regimen G)
[8] = SDD fasted, 270 mg (Regimen H) vs 180 mg (Regimen D)
[9] = Regimen D 180 mg SDD, geometric mean
[10] = Regimen E 180 mg HME, comparison to Regimen D 180 mg SDD, geometric mean
[11] = Regimen E 180 mg HME, geometric mean
[12] = 60 mg, Regimen A: 60 mg TQS-168 MC oral suspension, fasted, geometric mean
[13] = 60 mg, Regimen A: 60 mg TQS-168 MC oral suspension, fasted
[14] = 90 mg, Regimen F: 90 mg TQS-168 SDD oral suspension, fed (high fat breakfast), geometric mean
[15] = 90 mg, Regimen G: 90 mg TQS-168 SDD oral suspension, fasted, geometric mean
[16] = 90 mg, Regimen G: 90 mg TQS-168 SDD oral suspension, fasted
[17] = 180 mg, Regimen B: 180 mg TQS-168 MC oral suspension, fasted, geometric mean
[18] = 180 mg, Regimen D: 180 mg TQS-168 SDD oral suspension, fasted, geometric mean
[19] = 180 mg, Regimen E: 180 mg TQS-168 HME oral suspension, fasted, geometric mean
[20] = 180 mg, Regimen B: 180 mg TQS-168 MC oral suspension, fasted
[21] = 180 mg, Regimen D: 180 mg TQS-168 SDD oral suspension, fasted
[22] = 180 mg, Regimen E: 180 mg TQS-168 HME oral suspension, fasted
[23] = 270 mg, Regimen H: 270 mg TQS-168 SDD oral suspension, fasted, geometric mean
[24] = 270 mg, Regimen H: 270 mg TQS-168 SDD oral suspension, fasted
[25] = 540 mg, Regimen C: 540 mg TQS-168 MC oral suspension, fasted, geometric mean
[26] = 540 mg, Regimen C: 540 mg TQS-168 MC oral suspension, fasted

With `CC(C)(C)c1ccc(-c2nc3ccccc3[nH]2)cc1` [TQS-168, 2-(4-tert-butylphenyl)-1H-benzimidazole] the “induction of PGC-1α protein expression” value (PGC-1α) was “induces PGC-1α protein expression; also recorded: induction of PGC-1α protein expression”, the “suppression of TNFα production vs no treatment” value (TNF-α; 5 μM) was “statistically significant suppression” and the “suppression of TNFα production vs no treatment” value (TNF-α; 20 μM) was “statistically significant suppression”. The behavioral dysfunction (older mice) was “alleviate behavioral dysfunction”, the “inflammatory cytokine production in microglia” value (older mice) was “inhibit inflammatory cytokine production in microglia” and the “metabolic dysfunction in microglia” value (older mice) was “suppress metabolic dysfunction in microglia”. The systemic inflammation (older mice) was “suppress systemic inflammation”, the “increase in AUC(0-inf)” value [1, 2] was ~14% and the “increase in Cmax” value [1, 2] was “approximately 136%”. The “fold increase in geometric mean AUC(0-inf)” value [1, 3] was 2.06 fold, the “fold increase in geometric mean AUC(0-last)” value [1, 3] was 2.14 fold and the “fold increase in geometric mean Cmax” value [1, 3] was 2.32 fold. The “fold increase in geometric mean AUC(0-inf)” value [1, 4] was 3.45 fold, the “fold increase in geometric mean AUC(0-last)” value [1, 4] was 3.64 fold and the “fold increase in geometric mean Cmax” value [1, 4] was 4.11 fold. For the same molecule, the “fold increase in AUC(0-24)” value [1, 5] was 20.2 fold, the “fold increase in AUC(0-inf)” value [1, 5] was 21.2 fold and the “fold increase in Cmax” value [1, 5] was 12.1 fold. The “fold increase in AUC(0-24)” value [1, 6] was 8.8 fold, the “fold increase in AUC(0-inf)” value [1, 6] was 9.5 fold and the “fold increase in Cmax” value [1, 6] was 6.1 fold. For the same molecule, the “fold increase in AUC(0-inf)” value [1, 7] was 4.29 fold, the “fold increase in Cmax” value [1, 7] was 2.14 fold and the “increase in AUC(0-inf)” value [1, 8] was ~26%. The “increase in Cmax” value [1, 8] was “approximately 8.7%”, the “Frel AUC(0-inf)/D” value [1, 9] was 118% and the “Frel AUC(0-last)/D” value [1, 9] was 120%. For the same molecule, the “Frel Cmax/D” value [1, 9] was 218%, the “Frel AUC(0-inf)” value [1, 10] was 59.6% and the “Frel AUC(0-last)” value [1, 10] was 58.9%. The “Frel Cmax” value [1, 10] was 56.6%, the “Frel AUC(0-inf)/D” value [1, 11] was 70.4% and the “Frel AUC(0-last)/D” value [1, 11] was 70.9%. For the same molecule, the “Frel Cmax/D” value [1, 11] was 124%, the AUC(0-t) ([1]; 60 mg, AUC(0-24), Regimen A: 60 mg TQS-168 MC oral suspension, fasted, geometric mean) was 71.2 ng·h/mL and the AUC(0-inf) [1, 12] was 72.7 ng·h/mL. The AUC(0-t) ([1]; 60 mg, AUC(0-last), Regimen A: 60 mg TQS-168 MC oral suspension, fasted, geometric mean) was 67.6 ng·h/mL, the Cmax [1, 13] was 110 nM and the Cmax [1, 12] was 26.7 ng/mL. The half-life [1, 12] was 3.06 h, the Tmax [1, 13] was 1 h and the AUC(0-t) ([1]; 90 mg, AUC(0-24), Regimen F: 90 mg TQS-168 SDD oral suspension, fed (high fat breakfast), geometric mean) was 168 ng·h/mL. For the same molecule, the AUC(0-t) ([1]; 90 mg, AUC(0-24), Regimen G: 90 mg TQS-168 SDD oral suspension, fasted, geometric mean) was 192 ng·h/mL, the AUC(0-inf) [1, 14] was 171 ng·h/mL and the AUC(0-inf) [1, 15] was 195 ng·h/mL. For the same molecule, the AUC(0-t) ([1]; 90 mg, AUC(0-last), Regimen F: 90 mg TQS-168 SDD oral suspension, fed (high fat breakfast), geometric mean) was 166 ng·h/mL, the AUC(0-t) ([1]; 90 mg, AUC(0-last), Regimen G: 90 mg TQS-168 SDD oral suspension, fasted, geometric mean) was 189 ng·h/mL and the Cmax [1, 14] was 47.1 ng/mL. For the same molecule, the Cmax ([1]; 90 mg, Regimen F: 90 mg TQS-168 SDD oral suspension, fed) was 190 nM, the Cmax [1, 16] was 440 nM and the Cmax [1, 15] was 111 ng/mL. The half-life [1, 14] was 3.52 h, the half-life [1, 15] was 4.85 h and the Tmax ([1]; 90 mg, Regimen F: 90 mg TQS-168 SDD oral suspension, fed (high fat breakfast)) was 1.5 h. The Tmax [1, 16] was 0.5 h, the AUC(0-t) ([1]; 180 mg, AUC(0-24), Regimen B: 180 mg TQS-168 MC oral suspension, fasted, geometric mean) was 163 ng·h/mL and the AUC(0-t) ([1]; 180 mg, AUC(0-24), Regimen D: 180 mg TQS-168 SDD oral suspension, fasted, geometric mean) was 608 ng·h/mL. For the same molecule, the AUC(0-t) ([1]; 180 mg, AUC(0-24), Regimen E: 180 mg TQS-168 HME oral suspension, fasted, geometric mean) was 358 ng·h/mL, the AUC(0-inf) [1, 17] was 180 ng·h/mL and the AUC(0-inf) [1, 18] was 621 ng·h/mL. It also gave an AUC(0-inf) [1, 19] of 370 ng·h/mL, an AUC(0-t) ([1]; 180 mg, AUC(0-last), Regimen B: 180 mg TQS-168 MC oral suspension, fasted, geometric mean) of 168 ng·h/mL and an AUC(0-t) ([1]; 180 mg, AUC(0-last), Regimen D: 180 mg TQS-168 SDD oral suspension, fasted, geometric mean) of 611 ng·h/mL. It also gave an AUC(0-t) ([1]; 180 mg, AUC(0-last), Regimen E: 180 mg TQS-168 HME oral suspension, fasted, geometric mean) of 360 ng·h/mL, a Cmax [1, 20] of 210 nM and a Cmax [1, 17] of 53.1 ng/mL. It also gave a Cmax [1, 21] of 870 nM, a Cmax [1, 18] of 218 ng/mL and a Cmax [1, 22] of 490 nM. The Cmax [1, 19] was 123 ng/mL, the half-life [1, 17] was 7.36 h and the half-life [1, 18] was 5.64 h. The half-life [1, 19] was 7.25 h, the Tmax [1, 20] was 1 h and the Tmax [1, 21] was 1 h. It also gave a Tmax [1, 22] of 1.5 h, an AUC(0-t) ([1]; 270 mg, AUC(0-24), Regimen H: 270 mg TQS-168 SDD oral suspension, fasted, geometric mean) of 736 ng·h/mL and an AUC(0-inf) [1, 23] of 836 ng·h/mL. For the same molecule, the AUC(0-t) ([1]; 270 mg, AUC(0-last), Regimen H: 270 mg TQS-168 SDD oral suspension, fasted, geometric mean) was 801 ng·h/mL, the Cmax [1, 24] was 950 nM and the Cmax [1, 23] was 237 ng/mL. It also gave a half-life [1, 23] of 10.4 h, a Tmax [1, 24] of 1.5 h and an AUC(0-t) ([1]; 540 mg, AUC(0-24), Regimen C: 540 mg TQS-168 MC oral suspension, fasted, geometric mean) of 1440 ng·h/mL. It also gave an AUC(0-inf) [1, 25] of 1600 ng·h/mL, an AUC(0-t) ([1]; 540 mg, AUC(0-last), Regimen C: 540 mg TQS-168 MC oral suspension, fasted, geometric mean) of 1540 ng·h/mL and a Cmax [1, 26] of 1290 nM. For the same molecule, the Cmax [1, 25] was 323 ng/mL, the half-life [1, 25] was 10.1 h and the Tmax [1, 26] was 2.25 h.
